Counter-ions that a name gives are not always drawn.

A word on the IC50: it is the midpoint of a concentration-inhibition curve.

Chain of recombinant GST fusion MALT1 (human MALT1) (Q9UDY8 whole entry, the tested form may be a part): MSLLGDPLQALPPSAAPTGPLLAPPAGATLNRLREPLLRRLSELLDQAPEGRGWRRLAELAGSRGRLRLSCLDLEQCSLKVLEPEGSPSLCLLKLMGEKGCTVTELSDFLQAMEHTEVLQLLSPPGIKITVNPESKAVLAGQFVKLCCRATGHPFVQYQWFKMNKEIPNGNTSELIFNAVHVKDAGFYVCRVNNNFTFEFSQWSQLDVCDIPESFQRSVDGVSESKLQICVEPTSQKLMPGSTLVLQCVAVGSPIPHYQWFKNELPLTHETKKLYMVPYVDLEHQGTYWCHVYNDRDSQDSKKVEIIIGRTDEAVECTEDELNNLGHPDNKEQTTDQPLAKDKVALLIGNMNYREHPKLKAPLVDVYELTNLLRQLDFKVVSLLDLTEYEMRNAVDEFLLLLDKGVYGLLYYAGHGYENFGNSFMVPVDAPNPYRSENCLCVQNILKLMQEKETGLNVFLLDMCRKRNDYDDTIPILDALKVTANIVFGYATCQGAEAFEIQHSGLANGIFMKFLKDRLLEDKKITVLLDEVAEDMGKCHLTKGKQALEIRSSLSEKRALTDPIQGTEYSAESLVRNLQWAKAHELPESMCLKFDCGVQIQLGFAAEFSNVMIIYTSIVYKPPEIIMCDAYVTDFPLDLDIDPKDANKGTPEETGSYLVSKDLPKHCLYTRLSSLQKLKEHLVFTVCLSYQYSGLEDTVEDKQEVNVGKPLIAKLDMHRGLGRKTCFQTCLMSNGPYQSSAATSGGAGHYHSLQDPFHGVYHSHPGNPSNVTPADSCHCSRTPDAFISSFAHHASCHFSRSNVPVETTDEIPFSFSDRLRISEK

The test addresses recombinant GST fusion MALT1 (human MALT1) (Homo sapiens (Human), UniProt Q9UDY8). The experiment in a line: Evaluation of inhibition of protease activity of MALT1 (cleavage of fluorescent peptide substrate Ac-LRSR-AMC). Format: biochemical. As to conditions: substrate Ac-LRSR-AMC 20 μmol/L, 30° C. for 80 minutes. The method, then:
The guanidine derivative (I) or the pharmacologically acceptable salt thereof was evaluated for its inhibition of the protease activity of MALT1 in an in vitro experimental system in accordance with the method described in the literature (Cancer Cell, 2012, Vol. 22, p. 825-837). Specifically, the evaluation was conducted by measuring the degree of reduction in fluorescence value by the compound relative to elevation in fluorescence value resulting from the cleavage of a fluorescently labeled artificial peptide substrate by recombinant MALT1.
A) Preparation of Recombinant GST Fusion MALT1:
Full-length cDNA of human MALT1 gene (GenBank accession No: AB026118.1) amplified by PCR was inserted in flame to a SalI site located downstream of GST gene in a pGEX6P3 vector (GE Healthcare Japan Corp.) to prepare a vector (hereinafter, referred to as a pGEX6P3-MALT1 vector). Subsequently, E. coli for protein expression (BL21-RIL-codon plus-DE3, Agilent Technologies, Inc.) was transformed with the pGEX6P3-MALT1 vector and then analyzed by ampicillin resistance screening and colony PCR to obtain an E. coli strain expressing recombinant GST fusion MALT1. Protein expression was induced with isopropyl-(3-thiogalactopyranoside. After the expression induction, E. coli precipitates were recovered by centrifugation from the E. coli culture solution, and the E. coli precipitates were homogenized and then centrifuged to obtain a supernatant. The supernatant was purified using GSTrap FF column (GE Healthcare Japan Corp.) to obtain recombinant GST fusion MALT1.
B) Evaluation of Inhibition of Protease Activity of MALT1:
To 89 μL of an enzyme solution ([…] GST fusion MALT1, 50 mmol/L MES, 150 mmol/L NaCl, 10% sucrose, 0.1% CHAPS, 10 mmol/L dithiothreitol, and 1 mol/L tri-ammonium citrate) per specimen, 1 μL of a test compound (DMSO-diluted solution) of each concentration was added to prepare a mixed solution. The mixed solution was incubated at room temperature for 30 minutes, followed by the measurement of the fluorescence value of the mixed solution (fluorescence value of the first measurement) (Ex: 380 nm, Em: 460 nm; Envision (Perkin Elmer Inc.)). Next, 10 μL of 200 μmol/L substrate (Ac-LRSR-AMC, SM Biochemicals LLC) was added (final concentration: 20 μmol/L) to the mixed solution, and the mixture was reacted by incubation at 30° C. for 80 minutes, followed by the measurement of the fluorescence value of the reaction solution (fluorescence value of the second measurement) (Ex: 380 nm, Em: 460 nm; Envision (Perkin Elmer Inc.)). A “well nonsupplemented with the test compound (only DMSO was added), nonsupplemented with the enzyme and supplemented with the substrate”, and a “well nonsupplemented with the test compound (only DMSO was added), supplemented with the enzyme and supplemented with the substrate” were established.
The fluorescence value of the first measurement was defined as “F1”, and the fluorescence value of the second measurement was defined as “F2”. F2−F1 of the “well nonsupplemented with the test compound (only DMSO was added), nonsupplemented with the enzyme and supplemented with the substrate” was defined as “Fback”, F2−F1 of the “well nonsupplemented with the test compound (only DMSO was added), supplemented with the enzyme and supplemented with the substrate” was defined as “Fpositive”, and F2−F1 of the “well supplemented with the test compound, supplemented with the enzyme and supplemented with the substrate” was defined as “Fsample”. The rate of inhibition (%) of the protease activity of MALT1 by the test compound was calculated according to the following expression. Rate of inhibition (%)=100×(1−(Fsample−Fback)/(Fpositive−Fback))
`N/C(=N\S(=O)(=O)c1ccccc1F)NCc1cnc(-c2ccc(Cl)cc2)c(-c2ccc(Cl)cc2)c1` [Compound of Example 26, N-(amino(((5,6-bis(4-chlorophenyl)pyridin-3-yl)methyl)amino)methylene)-2-fluorobenzenesulfonamide]: the IC50 was 315 nM.

For `N/C(=N\S(=O)(=O)c1cccc(F)c1)NCc1cnc(-c2ccc(Cl)cc2)c(-c2ccc(Cl)cc2)c1` [Compound of Example 27, N-(amino(((5,6-bis(4-chlorophenyl)pyridin-3-yl)methyl)amino)methylene)-3-fluorobenzenesulfonamide], the IC50 is 532 nM.

For `N/C(=N\S(=O)(=O)c1ccc(F)cc1)NCc1cnc(-c2ccc(Cl)cc2)c(-c2ccc(Cl)cc2)c1` [Compound of Example 28, N-(amino(((5,6-bis(4-chlorophenyl)pyridin-3-yl)methyl)amino)methylene)-4-fluorobenzenesulfonamide], the IC50 was determined as 356 nM.

For the compound `N/C(=N\S(=O)(=O)c1cccs1)NCc1cnc(-c2ccc(Cl)cc2)c(-c2ccc(Cl)cc2)c1` [Compound of Example 29, N-(amino(((5,6-bis(4-chlorophenyl)pyridin-3-yl)methyl)amino)methylene)thiophene-2-sulfonamide], the IC50 amounted to 100 nM.

Consider `N/C(=N\S(=O)(=O)c1ccsc1)NCc1cnc(-c2ccc(Cl)cc2)c(-c2ccc(Cl)cc2)c1` [Compound of Example 30, N-(amino(((5,6-bis(4-chlorophenyl)pyridin-3-yl)methyl)amino)methylene)thiophene-3-sulfonamide], for which the concentration for half-maximal inhibition (IC50) worked out at 115 nM.

As to `N/C(=N\S(=O)(=O)c1ccco1)NCc1cnc(-c2ccc(Cl)cc2)c(-c2ccc(Cl)cc2)c1` [Compound of Example 31, N-(amino(((5,6-bis(4-chlorophenyl)pyridin-3-yl)methyl)amino)methylene)furan-2-sulfonamide], the IC50 was determined as 102 nM.

On to `N/C(=N\S(=O)(=O)c1ccoc1)NCc1cnc(-c2ccc(Cl)cc2)c(-c2ccc(Cl)cc2)c1` [Compound of Example 32, N-(amino(((5,6-bis(4-chlorophenyl)pyridin-3-yl)methyl)amino)methylene)furan-3-sulfonamide], for which the IC50 stood at 156 nM.

As for `Cc1ccc(-c2ncc(CN/C(N)=N/S(=O)(=O)c3cccs3)cc2-c2ccc(C(F)(F)F)cc2)cc1` [Compound of Example 33, N-(amino(((6-(4-methylphenyl)-5-(4-(trifluoromethyl)phenyl)pyridin-3-yl)methyl)amino)methylene)thiophene-2-sulfonamide Hydrochloride], the IC50 worked out at 2070 nM.

Turning to `N/C(=N\C(=O)c1ccccc1)NCc1cnc(-c2ccc(Cl)cc2)c(-c2ccc(Cl)cc2)c1` [Compound of Example 34, N-(amino(((5,6-bis(4-chlorophenyl)pyridin-3-yl)methyl)amino)methylene)benzamide], the IC50 was 817 nM.

As to `N/C(=N\C(=O)c1cccs1)NCc1cnc(-c2ccc(Cl)cc2)c(-c2ccc(Cl)cc2)c1` [Compound of Example 35, N-(amino(((5,6-bis(4-chlorophenyl)pyridin-3-yl)methyl)amino)methylene)thiophene-2-carboxamide Hydrochloride], the IC50 is 314 nM.

Turning to `N/C(=N\S(=O)(=O)c1ccccc1)NCc1cnc(-c2ccc(Cl)cc2F)c(-c2ccc(Cl)cc2)c1` [Compound of Example 36, N-(amino(((6-(4-chloro-2-fluorophenyl)-5-(4-chlorophenyl)pyridin-3-yl)methyl)amino)methylene)benzenesulfonamide], the IC50 is 237 nM.

As to `COc1ccc(-c2cc(CN/C(N)=N/S(=O)(=O)c3ccccc3)cnc2-c2ccc(Cl)cc2)cc1F` [Compound of Example 37, N-(amino(((6-(4-chlorophenyl)-5-(3-fluoro-4-methoxyphenyl)pyridin-3-yl)methyl)amino)methylene)benzenesulfonamide], the half-inhibitory concentration (IC50) came to 1270 nM.

Take `NN/C(=N\S(=O)(=O)c1ccccc1)NCc1cnc(-c2ccc(Cl)cc2)c(-c2ccc(Cl)cc2)c1` [Compound of Example 38, N-((5,6-bis(4-chlorophenyl)pyridin-3-yl)methyl)-N′-(phenylsulfonyl)hydrazinecarboximidate]: the 50% inhibitory concentration (IC50) came to 90 nM.

For `O=S(=O)(/N=C(\NO)NCc1cnc(-c2ccc(Cl)cc2)c(-c2ccc(Cl)cc2)c1)c1ccccc1` [Compound of Example 39, N-((((5,6-bis(4-chlorophenyl)pyridin-3-yl)methyl)amino)(hydroxyamino)methylene)benzenesulfonamide], the IC50 is 106 nM.

For the compound `CN/C(=N\S(=O)(=O)c1ccccc1)NCc1cnc(-c2ccc(Cl)cc2)c(-c2ccc(Cl)cc2)c1` [Compound of Example 40], the concentration for half-maximal inhibition (IC50) turned out to be 37 nM.

Take `NC(=O)/N=C(\N)NCc1cnc(-c2ccc(Cl)cc2)c(-c2ccc(Cl)cc2)c1` [Compound of Example 41, 1-(amino(((5,6-bis(4-chlorophenyl)pyridin-3-yl)methyl)amino)methylene)urea Hydrochloride]: the IC50 came to 679 nM.

Turning to `NC(=NS(=O)(=O)c1cccs1)NCc1cc(-c2ccc(Cl)cc2)c(-c2ccc(Cl)cc2)cn1` [Compound of Example 43, N-(amino(((4,5-bis(4-chlorophenyl)pyridin-2-yl)methyl)amino)methylene)thiophene-2-sulfonamide], the IC50 worked out at 23 nM.

Turning to `NC(=NS(=O)(=O)c1ccccc1)NCc1ccc(-c2ccc(Cl)cc2)c(-c2ccc(Cl)cc2)n1` [Compound of Example 45, N-(amino(((5,6-bis(4-chlorophenyl)pyridin-2-yl)methyl)amino)methylene)benzenesulfonamide Hydrochloride], the concentration for half-maximal inhibition (IC50) is 221 nM.

Consider `CC(N/C(N)=N/S(=O)(=O)c1ccccc1)c1cnc(-c2ccc(Cl)cc2)c(-c2ccc(Cl)cc2)c1` (stereo not drawn) [Compound of Example 46, N-(amino((1-(5,6-bis(4-chlorophenyl)pyridin-3-yl)ethyl)amino)methylene)benzenesulfonamide], for which the IC50 amounted to 539 nM.

For `N#Cc1cccc(S(=O)(=O)/N=C(\N)NCc2cnc(-c3ccc(Cl)cc3)c(-c3ccc(Cl)cc3)c2)c1` [Compound of Example 47, N-(amino(((5,6-bis(4-chlorophenyl)pyridin-3-yl)methyl)amino)methylene)-3-cyanobenzenesulfonamide], the IC50 is 320 nM.

With `N/C(=N\S(=O)(=O)c1cccc(Cl)c1)NCc1cnc(-c2ccc(Cl)cc2)c(-c2ccc(Cl)cc2)c1` [Compound of Example 48, N-(amino(((5,6-bis(4-chlorophenyl)pyridin-3-yl)methyl)amino)methylene)-3-chlorobenzenesulfonamide], the 50% inhibitory concentration (IC50) was found to be 333 nM.

As for `COc1ccccc1S(=O)(=O)/N=C(\N)NCc1cnc(-c2ccc(Cl)cc2)c(-c2ccc(Cl)cc2)c1` [Compound of Example 49, N-(amino(((5,6-bis(4-chlorophenyl)pyridin-3-yl)methyl)amino)methylene)-2-methoxybenzenesulfonamide], the 50% inhibitory concentration (IC50) amounted to 326 nM.

Take `COc1cccc(S(=O)(=O)/N=C(\N)NCc2cnc(-c3ccc(Cl)cc3)c(-c3ccc(Cl)cc3)c2)c1` [Compound of Example 50, N-(amino(((5,6-bis(4-chlorophenyl)pyridin-3-yl)methyl)amino)methylene)-3-methoxybenzenesulfonamide]: the IC50 stood at 114 nM.

Take `CCOc1cccc(S(=O)(=O)/N=C(\N)NCc2cnc(-c3ccc(Cl)cc3)c(-c3ccc(Cl)cc3)c2)c1` [Compound of Example 51, N-(amino(((5,6-bis(4-chlorophenyl)pyridin-3-yl)methyl)amino)methylene)-3-ethoxybenzenesulfonamide]: the 50% inhibitory concentration (IC50) was 185 nM.
